Data published in patent US10703765B2 (priority 2014, dated 2020).
Where a name gives a salt, the structure may show the parent alone. Read-outs that look alike come from different tables or passages of the source.

Target: human σ1 receptor (Homo sapiens, UniProt Q99720)
Assay: biochemical
Format: binding
Design: μ and σ1 dual binding: key to the marks not given beside the values
[1] = read-out: μ and σ1 dual binding

Sequence of human σ1 receptor (Q99720 whole entry): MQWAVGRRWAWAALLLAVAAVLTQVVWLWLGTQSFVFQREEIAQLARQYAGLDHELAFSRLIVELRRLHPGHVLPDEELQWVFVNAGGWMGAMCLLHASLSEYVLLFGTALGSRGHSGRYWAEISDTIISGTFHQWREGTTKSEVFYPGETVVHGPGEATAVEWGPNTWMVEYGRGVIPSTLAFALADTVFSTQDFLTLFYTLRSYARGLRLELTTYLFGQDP

SMILES	Ki [nM]	Ki [1] [nM]	also measured
COc1ccccc1CCN1CCC2(CC1)CN(c1ccccc1F)C(=O)C(C(C)C)O2 (stereo not drawn) [Example 137, 4-(2-fluorophenyl)-2-isopropyl-9-(2-methoxyphenethyl)-1-oxa-4,9-diazaspiro[5.5]undecan-3-one hydrochloride]	< 100	–	–
c1ccc(CN2CCOC3(CCN(CCc4ccccn4)CC3)C2)cc1 [Example 138, 4-benzyl-9-(2-(pyridin-2-yl)ethyl)-1-oxa-4,9-diazaspiro[5.5]undecane hydrochloride]	–	< 100	–
CC(C)=C1OC2(CCN(CCc3ccccn3)CC2)CN(c2ccccc2F)C1=O [Example 139]	–	> 500	–
CC1OC2(CCN(CCc3csc(NC(=O)OC(C)(C)C)n3)CC2)CN(c2ccccc2F)C1=O (stereo not drawn) [Example 140, tert-butyl (4-(2-(4-(2-fluorophenyl)-2-methyl-3-oxo-1-oxa-4,9-diazaspiro[5.5]undecan-9-yl)ethyl)thiazol-2-yl)carbamate]	–	> 500	–
CC(C)=C1OC2(CCN(CCc3scnc3C)CC2)CN(c2ccccc2F)C1=O [Example 141, 4-(2-fluorophenyl)-9-(2-(4-methylthiazol-5-yl)ethyl)-2-(propan-2-ylidene)-1-oxa-4,9-diazaspiro[5.5]undecan-3-one hydrochloride]	–	< 500	–
COCCC=C1OC2(CCN(CCc3ccccc3)CC2)CN(c2ccccc2F)C1=O [Example 142, 4-(2-fluorophenyl)-2-(3-methoxypropylidene)-9-phenethyl-1-oxa-4,9-diazaspiro[5.5]undecan-3-one]	< 500	–	–
CCOC(=O)c1cccc(CCN2CCC3(CC2)CN(c2ccccc2F)C(=O)C(C)O3)c1 (stereo not drawn) [Example 143, ethyl 3-(2-(4-(2-fluorophenyl)-2-methyl-3-oxo-1-oxa-4,9-diazaspiro[5.5]undecan-9-yl)ethyl)benzoate]	–	> 500	–
CC1OC2(CCN(CCC(=O)Nc3ccccc3)CC2)CN(c2ccccc2)C1=O (stereo not drawn) [Example 144, 3-(2-methyl-3-oxo-4-phenyl-1-oxa-4,9-diazaspiro[5.5]undecan-9-yl)-N-phenylpropanamide hydrochloride]	–	< 500	–
CC1OC2(CCN(CCOc3cccnc3)CC2)CN(c2ccccc2)C1=O (stereo not drawn) [Example 145, 2-methyl-4-phenyl-9-(2-(pyridin-3-yloxy)ethyl)-1-oxa-4,9-diazaspiro[5.5]undecan-3-one hydrochloride]	–	> 500	–
CC1OC2(CCN(CCN3CCCC3=O)CC2)CN(c2ccccc2)C1=O (stereo not drawn) [Example 146, 2-methyl-9-(2-(2-oxopyrrolidin-1-yl)ethyl)-4-phenyl-1-oxa-4,9-diazaspiro[5.5]undecan-3-one]	–	> 500	–
CC1OC2(CCN(CCc3cn[nH]c3)CC2)CN(c2ccccc2)C1=O (stereo not drawn) [Example 147, 9-(2-(1H-pyrazol-4-yl)ethyl)-2-methyl-4-phenyl-1-oxa-4,9-diazaspiro[5.5]undecan-3-one]	–	> 500	–
COc1ccc(CN2CC3(CCN(CCc4ccccc4F)CC3)OC3(CC3)C2=O)cc1 [Example 148, 8-(2-fluorophenethyl)-12-(4-methoxybenzyl)-4-oxa-8,12-diazadispiro[2.1.5.3]tridecan-13-one]	–	> 500	–
Cl.O=C1COC2(CCN(CCc3ccccc3)C2)CN1c1ccccc1 (stereo not drawn) [Example 149, 2-phenethyl-9-phenyl-6-oxa-2,9-diazaspiro[4.5]decan-8-one hydrochloride]	–	–	μ and σ1 dual binding: ++
C[C@H]1OC2(CCN(C[C@H](O)c3ccccc3)CC2)CN(c2ccccc2)C1=O [Example 151a, (R)-9-((R)-2-hydroxy-2-phenylethyl)-2-methyl-4-phenyl-1-oxa-4,9-diazaspiro[5.5]undecan-3-one]	< 500	–	–
C[C@H]1OC2(CCN(C[C@@H](O)c3ccccc3)CC2)CN(c2ccccc2)C1=O [Example 151b, (R)-9-((S)-2-hydroxy-2-phenylethyl)-2-methyl-4-phenyl-1-oxa-4,9-diazaspiro[5.5]undecan-3-one]	< 500	–	–
C[C@@H]1OC2(CCN(C[C@@H](O)c3ccccc3)CC2)CN(c2ccccc2)C1=O [Example 151c, (S)-9-((S)-2-hydroxy-2-phenylethyl)-2-methyl-4-phenyl-1-oxa-4,9-diazaspiro[5.5]undecan-3-one]	< 500	–	–
C[C@@H]1OC2(CCN(C[C@H](O)c3ccccc3)CC2)CN(c2ccccc2)C1=O [Example 151d, (S)-9-((R)-2-hydroxy-2-phenylethyl)-2-methyl-4-phenyl-1-oxa-4,9-diazaspiro[5.5]undecan-3-one]	< 500	–	–
CC1OC2(CCN(CCc3ccccc3)CC2)CN(Cc2ccccc2)C1=O (stereo not drawn) [Example 152, 4-benzyl-2-methyl-9-phenethyl-1-oxa-4,9-diazaspiro[5.5]undecan-3-one hydrochloride]	–	< 100	–
O=C1COC2(CCN(CCc3ccccc3)CC2)CN1Cc1ccccc1 [Example 153, 4-benzyl-9-phenethyl-1-oxa-4,9-diazaspiro[5.5]undecan-3-one hydrochloride]	–	< 100	–
CC1OC2(CCN(CCc3ccccc3)CC2)CN(Cc2ccccc2F)C1=O (stereo not drawn) [Example 154, 4-(2-fluorobenzyl)-2-methyl-9-phenethyl-1-oxa-4,9-diazaspiro[5.5]undecan-3-one hydrochloride]	–	< 100	–

SMILES	Ki [nM]	Ki [1] [nM]	also measured
CC1OC2(CCN(CCc3ccccc3)CC2)CN(Cc2cccc(F)c2)C1=O (stereo not drawn) [Example 155, 4-(3-fluorobenzyl)-2-methyl-9-phenethyl-1-oxa-4,9-diazaspiro[5.5]undecan-3-one hydrochloride]	< 100	–	–
CC1OC2(CCN(CCc3ccccc3)CC2)CN(Cc2ccccn2)C1=O (stereo not drawn) [Example 157, 2-methyl-9-phenethyl-4-(pyridin-2-ylmethyl)-1-oxa-4,9-diazaspiro[5.5]undecan-3-one hydrochloride]	< 100	–	–
CC1OC2(CCN(CCc3ccccc3)CC2)CN(Cc2ccc(F)cc2)C1=O (stereo not drawn) [Example 158, 4-(4-fluorobenzyl)-2-methyl-9-phenethyl-1-oxa-4,9-diazaspiro[5.5]undecan-3-one hydrochloride]	–	< 100	–
CC1OC2(CCN(CCc3ccccc3)CC2)CN(Cc2cccnc2)C1=O (stereo not drawn) [Example 159, 2-methyl-9-phenethyl-4-(pyridin-3-ylmethyl)-1-oxa-4,9-diazaspiro[5.5]undecan-3-one hydrochloride]	< 100	–	–
CC1OC2(CCN(CCc3ccccc3)CC2)CN(Cc2nccs2)C1=O (stereo not drawn) [Example 160, 2-methyl-9-phenethyl-4-(thiazol-2-ylmethyl)-1-oxa-4,9-diazaspiro[5.5]undecan-3-one hydrochloride]	< 100	–	–
CC1OC2(CCN(CCc3ccccc3)CC2)CN(Cc2cncs2)C1=O (stereo not drawn) [Example 161, 2-methyl-9-phenethyl-4-(thiazol-5-ylmethyl)-1-oxa-4,9-diazaspiro[5.5]undecan-3-one hydrochloride]	–	< 500	–
CC1OC2(CCN(CCc3ccccc3)CC2)CN(Cc2ccncc2)C1=O (stereo not drawn) [Example 162, 2-methyl-9-phenethyl-4-(pyridin-4-ylmethyl)-1-oxa-4,9-diazaspiro[5.5]undecan-3-one]	–	< 500	–
CC1OC2(CCN(CCc3ccccc3)CC2)CN(CC2CCOCC2)C1=O.Cl (stereo not drawn) [Example 163, 2-methyl-9-phenethyl-4-((tetrahydro-2H-pyran-4-yl)methyl)-1-oxa-4,9-diazaspiro[5.5]undecan-3-one hydrochloride]	–	–	μ and σ1 dual binding: ++
CC1OC2(CCN(CCc3ccccc3)CC2)CN(Cc2cscn2)C1=O (stereo not drawn) [Example 164, 2-methyl-9-phenethyl-4-(thiazol-4-ylmethyl)-1-oxa-4,9-diazaspiro[5.5]undecan-3-one]	–	< 100	–
O=C1COC2(CCN(CCc3ccccc3)CC2)CN1Cc1ccncc1 [Example 165, 9-phenethyl-4-(pyridin-4-ylmethyl)-1-oxa-4,9-diazaspiro[5.5]undecan-3-one]	–	–	μ and σ1 dual binding (combined class from Ki-σ1 (human σ1 receptor, A1) and Ki-μ (human μ-opioid receptor, A2) radioligand binding): ++
COc1cccc(CN2CC3(CCN(CCc4ccccc4)CC3)OCC2=O)c1 [Example 166, 4-(3-methoxybenzyl)-9-phenethyl-1-oxa-4,9-diazaspiro[5.5]undecan-3-one hydrochloride]	–	< 500	–
O=C1COC2(CCN(CCc3ccccc3)CC2)CN1Cc1cscn1 [Example 167, 9-phenethyl-4-(thiazol-4-ylmethyl)-1-oxa-4,9-diazaspiro[5.5]undecan-3-one hydrochloride]	–	< 100	–
Cl.O=C1COC2(CCN(CCc3ccccc3)CC2)CN1Cc1nccn1Cc1ccccc1 [Example 168, 4-((1-benzyl-1H-imidazol-2-yl)methyl)-9-phenethyl-1-oxa-4,9-diazaspiro[5.5]undecan-3-one hydrochloride]	–	–	μ and σ1 dual binding: ++
Cl.O=C1COC2(CCN(CCc3ccccc3)CC2)CN1CCc1ccccn1 [Example 169, 9-phenethyl-4-(2-(pyridin-2-yl)ethyl)-1-oxa-4,9-diazaspiro[5.5]undecan-3-one hydrochloride]	–	–	μ and σ1 dual binding: ++
CC1OC2(CCN(CCc3ccccc3)CC2)CN(CC(=O)N2CCOCC2)C1=O (stereo not drawn) [Example 170, 2-methyl-4-(2-morpholino-2-oxoethyl)-9-phenethyl-1-oxa-4,9-diazaspiro[5.5]undecan-3-one hydrochloride]	–	> 500	–
CC1OC2(CCN(CCc3ccccc3)CC2)CN(Cc2ccn(C)n2)C1=O (stereo not drawn) [Example 171, 2-methyl-4-((1-methyl-1H-pyrazol-3-yl)methyl)-9-phenethyl-1-oxa-4,9-diazaspiro[5.5]undecan-3-one]	< 500	–	–
CC1OC2(CCN(CCc3ccccc3)CC2)CN(Cc2nccn2C)C1=O.Cl (stereo not drawn) [Example 172, 2-methyl-4-((1-methyl-1H-imidazol-2-yl)methyl)-9-phenethyl-1-oxa-4,9-diazaspiro[5.5]undecan-3-one hydrochloride]	–	–	μ and σ1 dual binding: ++
CC1OC2(CCN(CCc3ccccc3)CC2)CN(Cc2ncccc2F)C1=O (stereo not drawn) [Example 173, 4-((3-fluoropyridin-2-yl)methyl)-2-methyl-9-phenethyl-1-oxa-4,9-diazaspiro[5.5]undecan-3-one]	–	< 100	–
CC1OC2(CCN(CCc3ccccc3)CC2)CN(Cc2cccc(C(F)(F)F)n2)C1=O (stereo not drawn) [Example 174, 2-methyl-9-phenethyl-4-((6-(trifluoromethyl)pyridin-2-yl)methyl)-1-oxa-4,9-diazaspiro[5.5]undecan-3-one hydrochloride]	< 100	–	–
